Measured values published in ChEMBL document CHEMBL5137113, “Identification of Nitric Oxide-Donating Ripasudil Derivatives with Intraocular Pressure Lowering and Retinal Ganglion Cell Protection Activities” (J Med Chem, 2022).
The source made the active and inactive calls.

Columns and labels:
HTM [1] = test: Downregulation of phosphorylated MLC expression in HTM cells at 10 uM incubated for 1 hr by Western blotting analysis; type: functional, cell-based; conditions: Homo sapiens
HTM [2] = test: Effect on MLC expression in HTM cells assessed as reduction in phosphorylated MLC/MLC ratio at 10 uM incubated for 1 hr by densitometry analysis; type: functional, cell-based; conditions: Homo sapiens
HTM [3] = test: Induction of NO release in HTM cells assessed as increase in fluorescence intensity by DAF-FM DA dye based flow cytometry analysis; type: functional, cell-based; conditions: Homo sapiens
HTM [4] = test: Induction of NO release in HTM cells assessed as increase in positive area by DAF-FM DA dye based flow cytometry analysis; type: functional, cell-based; conditions: Homo sapiens
HTM [5] = test: Effect of compound on intracellular cGMP concentration in HTM cells assessed as increase in cGMP level at 10 uM incubated for 24 hrs by ELISA; type: functional, cell-based; conditions: Homo sapiens
HTM [6] = test: Induction of reversible F-actin depolymerization in HTM cells assessed as irregular arrangement of fiber bundles at 10 uM incubated for 1 hr and further incubated for 4 hrs in drug free medium by rhodamine phalloidin staining based confocal scanning microscopic analysis; type: cell-based; conditions: Homo sapiens
HTM [7] = test: Inhibtion of mitochondrial respiration in HTM cells assessed as repression of oxygen consumption rate at 10 uM incubated for 1 hr by Seahorse XF24 extracellular flux analyzer; type: functional, cell-based; conditions: Homo sapiens
HTM [8] = test: Inhibtion of mitochondrial respiration in HTM cells assessed as oxygen consumption rate by measuring decrease in basal respiration at 10 uM incubated for 1 hr by Seahorse XF24 extracellular flux analyzer; type: functional, cell-based; conditions: Homo sapiens
HTM [9] = test: Inhibtion of mitochondrial respiration in HTM cells assessed as oxygen consumption rate by measuring decrease in ATP production at 10 uM incubated for 1 hr by Seahorse XF24 extracellular flux analyzer; type: functional, cell-based; conditions: Homo sapiens
HTM [10] = test: Inhibtion of mitochondrial respiration in HTM cells assessed as oxygen consumption rate by measuring decrease in maximal respiration at 10 uM incubated for 1 hr by Seahorse XF24 extracellular flux analyzer; type: functional, cell-based; conditions: Homo sapiens
HTM [11] = test: Inhibtion of mitochondrial respiration in HTM cells assessed as oxygen consumption rate by measuring decrease in coupling efficiency at 10 uM incubated for 1 hr by Seahorse XF24 extracellular flux analyzer; type: functional, cell-based; conditions: Homo sapiens
HTM [12] = test: Inhibtion of mitochondrial respiration in HTM cells assessed as oxygen consumption rate by measuring decrease in proton leak at 10 uM incubated for 1 hr by Seahorse XF24 extracellular flux analyzer; type: functional, cell-based; conditions: Homo sapiens
Mus musculus [13] = test: Antiglaucoma activity in microspheres induced chronic ocular hypertension C57BL/6J mouse model assessed as reduction in contrast sensitivity threshold at 0.26% solution administered via topical instillation and measured after 10 days by optokinetic reflex test; type: functional, organism-based; conditions: route top, time 10.0 day
Mus musculus [14] = test: Antiglaucoma activity in microspheres induced chronic ocular hypertension C57BL/6J mouse model assessed as increase in visual acuity under maximum contrast condition at 0.26% solution administered via topical instillation and measured after 10 days by optokinetic reflex test; type: functional, organism-based; conditions: route top, time 10.0 day
Mus musculus [15] = test: Antiglaucoma activity in microspheres induced chronic ocular hypertension C57BL/6J mouse model assessed as increase in number of RGCs in retina at 0.26% solution administered via topical instillation and measured after 10 days by immunostaining based confocal microscopic analysis; type: functional, organism-based; conditions: route top, time 10.0 day
Mus musculus [16] = test: Antiglaucoma activity in microspheres induced chronic ocular hypertension C57BL/6J mouse model assessed as reduction in intraocular pressure at 0.26% solution administered via topical instillation for three times per day and measured at 1 to 6 hrs post instillation by ophthalmotonometer; type: functional, organism-based; conditions: route top, time 1-6 hrs
[17] = molecular target: Rho-associated protein kinase 1 (Homo sapiens, UniProt Q13464); test: Inhibition of ROCK1 (unknown origin) using biotin as substrate incubated for 1 hr by HTRF assay
[18] = molecular target: Rho-associated protein kinase 2 (Homo sapiens, UniProt O75116); test: Inhibition of ROCK2 (unknown origin) using biotin as substrate incubated for 1 hr by HTRF assay
Mus musculus [19] = test: Antiglaucoma activity in microspheres induced chronic ocular hypertension C57BL/6J mouse model assessed as reduction in intraocular pressure at 0.2% solution administered via topical instillation for three times per day and measured at 1 to 6 hrs post instillation by ophthalmotonometer; type: functional, organism-based; conditions: route top, time 1-6 hrs
[20] = Ocular toxicity in C57BL/6J mouse assessed as effect on conjunctival hyperemia at 0.2% solution administered via topical instillation and measured at 1 to 4 hrs post instillation; conditions: in vivo, topical_or_ocular, time 1-4 hrs, route top
Mus musculus [21] = test: Antiglaucoma activity in microspheres induced chronic ocular hypertension C57BL/6J mouse model assessed as reduction in intraocular pressure at 0.07% solution administered via topical instillation for three times per day and measured at 1 to 6 hrs post instillation in presence of ripasudil by ophthalmotonometer; type: functional, organism-based; conditions: route top, time 1-6 hrs
[22] = Ocular toxicity in C57BL/6J mouse assessed as effect on conjunctival hyperemia at 0.07% solution administered via topical instillation and measured at 1 to 4 hrs post instillation in presence of ripasudil; conditions: in vivo, topical_or_ocular, time 1-4 hrs, route top
[23] = Ocular toxicity in New Zealand white albino rabbit assessed as effect on ocular irritation at 0.579% solution administered via topical instillation and measured at 1 to 4 hrs post instillation by draize's test; parameters: species or system Oryctolagus cuniculus; conditions: in vivo, topical_or_ocular, time 1-4 hrs, route top
[24] = Ocular toxicity in C57BL/6J mouse assessed as effect on conjunctival hyperemia at 0.26% solution administered via topical instillation and measured at 1 to 4 hrs post instillation; conditions: in vivo, topical_or_ocular, time 1-4 hrs, route top

Chain of Rho-associated protein kinase 1 (Q13464 whole entry): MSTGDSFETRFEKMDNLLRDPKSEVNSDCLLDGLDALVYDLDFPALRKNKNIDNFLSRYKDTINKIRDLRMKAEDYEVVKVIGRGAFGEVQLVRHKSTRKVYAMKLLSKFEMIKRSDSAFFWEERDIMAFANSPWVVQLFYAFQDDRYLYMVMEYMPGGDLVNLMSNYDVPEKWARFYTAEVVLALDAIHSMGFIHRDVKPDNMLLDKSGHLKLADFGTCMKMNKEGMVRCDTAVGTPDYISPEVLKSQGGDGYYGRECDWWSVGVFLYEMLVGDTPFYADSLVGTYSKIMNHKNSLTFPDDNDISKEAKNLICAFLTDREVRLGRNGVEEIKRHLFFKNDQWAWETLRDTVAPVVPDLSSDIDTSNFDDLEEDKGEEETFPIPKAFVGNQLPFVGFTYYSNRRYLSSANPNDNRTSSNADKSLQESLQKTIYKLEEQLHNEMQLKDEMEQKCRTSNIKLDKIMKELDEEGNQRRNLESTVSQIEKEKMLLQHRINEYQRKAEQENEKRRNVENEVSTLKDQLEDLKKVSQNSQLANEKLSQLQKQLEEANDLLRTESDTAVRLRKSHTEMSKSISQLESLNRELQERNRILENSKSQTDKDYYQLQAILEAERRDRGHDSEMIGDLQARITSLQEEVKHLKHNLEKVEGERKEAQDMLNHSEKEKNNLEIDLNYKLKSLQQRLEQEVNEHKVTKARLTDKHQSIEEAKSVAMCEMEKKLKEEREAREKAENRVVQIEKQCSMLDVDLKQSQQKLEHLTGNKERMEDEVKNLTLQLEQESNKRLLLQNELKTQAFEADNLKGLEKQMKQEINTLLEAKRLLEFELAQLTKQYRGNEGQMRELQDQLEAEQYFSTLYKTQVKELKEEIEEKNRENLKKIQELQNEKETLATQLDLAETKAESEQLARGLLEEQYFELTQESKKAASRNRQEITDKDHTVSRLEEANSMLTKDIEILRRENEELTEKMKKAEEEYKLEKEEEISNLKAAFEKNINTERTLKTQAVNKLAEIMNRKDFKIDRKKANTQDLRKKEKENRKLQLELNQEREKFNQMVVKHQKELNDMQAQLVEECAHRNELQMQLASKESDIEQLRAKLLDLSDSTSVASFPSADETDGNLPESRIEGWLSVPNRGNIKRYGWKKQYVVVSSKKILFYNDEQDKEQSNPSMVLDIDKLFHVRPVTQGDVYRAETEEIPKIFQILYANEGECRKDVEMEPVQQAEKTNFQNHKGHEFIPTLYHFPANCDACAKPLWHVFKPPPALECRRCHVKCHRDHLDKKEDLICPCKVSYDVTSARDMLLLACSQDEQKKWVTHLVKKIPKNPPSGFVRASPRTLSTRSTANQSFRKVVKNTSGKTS
Chain of Rho-associated protein kinase 2 (O75116 whole entry): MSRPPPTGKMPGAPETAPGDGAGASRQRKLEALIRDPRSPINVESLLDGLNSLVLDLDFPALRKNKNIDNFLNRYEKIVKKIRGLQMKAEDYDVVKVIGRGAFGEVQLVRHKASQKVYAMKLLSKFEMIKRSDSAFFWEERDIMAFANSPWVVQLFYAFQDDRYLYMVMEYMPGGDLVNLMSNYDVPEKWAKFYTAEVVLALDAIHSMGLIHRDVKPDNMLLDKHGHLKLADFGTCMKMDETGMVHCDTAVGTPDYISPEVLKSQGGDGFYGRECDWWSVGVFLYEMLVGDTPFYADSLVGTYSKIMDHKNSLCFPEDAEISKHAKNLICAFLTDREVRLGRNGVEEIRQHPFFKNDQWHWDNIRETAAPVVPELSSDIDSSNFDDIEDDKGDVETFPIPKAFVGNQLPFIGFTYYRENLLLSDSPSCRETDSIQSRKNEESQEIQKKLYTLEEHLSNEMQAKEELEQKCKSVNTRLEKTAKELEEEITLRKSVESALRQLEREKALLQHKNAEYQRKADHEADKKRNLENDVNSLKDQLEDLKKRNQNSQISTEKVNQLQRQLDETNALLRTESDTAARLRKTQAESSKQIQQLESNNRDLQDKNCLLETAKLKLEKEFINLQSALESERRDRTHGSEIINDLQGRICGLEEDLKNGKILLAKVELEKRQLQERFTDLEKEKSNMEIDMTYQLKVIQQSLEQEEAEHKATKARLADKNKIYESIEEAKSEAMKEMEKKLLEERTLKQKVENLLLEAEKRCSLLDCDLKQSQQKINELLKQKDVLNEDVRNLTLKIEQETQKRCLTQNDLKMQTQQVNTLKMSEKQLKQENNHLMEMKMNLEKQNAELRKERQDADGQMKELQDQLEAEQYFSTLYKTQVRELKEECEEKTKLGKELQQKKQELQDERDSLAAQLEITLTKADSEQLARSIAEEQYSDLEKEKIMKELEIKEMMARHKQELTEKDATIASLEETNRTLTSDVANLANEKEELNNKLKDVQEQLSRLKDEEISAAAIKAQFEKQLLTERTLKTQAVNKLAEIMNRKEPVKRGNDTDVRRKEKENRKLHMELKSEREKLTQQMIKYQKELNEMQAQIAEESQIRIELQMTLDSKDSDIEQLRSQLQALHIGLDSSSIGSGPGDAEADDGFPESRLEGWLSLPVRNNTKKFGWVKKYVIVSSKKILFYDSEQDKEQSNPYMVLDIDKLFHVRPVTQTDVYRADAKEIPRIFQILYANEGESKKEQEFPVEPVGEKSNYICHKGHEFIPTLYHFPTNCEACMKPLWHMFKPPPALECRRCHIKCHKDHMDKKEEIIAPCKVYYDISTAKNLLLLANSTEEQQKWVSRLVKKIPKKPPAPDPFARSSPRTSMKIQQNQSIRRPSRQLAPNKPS

Q: Which Activity (HTM [1]) does the source give for `C[C@H]1CN(C(=O)OCCCCO[N+](=O)[O-])CCCN1S(=O)(=O)c1cccc2cncc(F)c12` [listing 1 of 2 here] here?
A: Its Activity is “Active”.

Q: And the Activity (HTM [2])?
A: The Activity was “Active”.

Q: What about the Activity (HTM [3]) of the same molecule?
A: Its Activity is “Active”.

Q: And the Activity (HTM [4])?
A: Its Activity is “Active”.

Q: What about the Activity (HTM [5]) of the same molecule?
A: Its Activity is “Active”.

Q: What about the Activity (HTM [6]) of the same molecule?
A: The Activity was “Active”.

Q: And the Activity (HTM [7])?
A: The Activity was “Active”.

Q: And the Activity (HTM [8])?
A: Its Activity is “Active”.

Q: What about the Activity (HTM [9]) of the same molecule?
A: Its Activity is “Active”.

Q: And the Activity (HTM [10])?
A: Its Activity is “Active”.

Q: And the Activity (HTM [11])?
A: Its Activity is “Active”.

Q: What about the Activity (HTM [12]) of the same molecule?
A: Its Activity is “Active”.

Q: What about the Activity (Mus musculus [13]) of the same molecule?
A: The Activity was “Active”.

Q: And the Activity (Mus musculus [14])?
A: Its Activity is “Active”.

Q: And the Activity (Mus musculus [15])?
A: Its Activity is “Active”.

Q: What about the Activity (Mus musculus [16]) of the same molecule?
A: Its Activity is “Active”.

Q: What does the source list for `C[C@H]1CN(C(=O)OCCCCO[N+](=O)[O-])CCCN1S(=O)(=O)c1cccc2cncc(F)c12` [listing 2 of 2 here]?
A: IC50 [17]: 58.3 nM; IC50 [18]: 47.4 nM

Q: Which IC50 [17] does the source give for `C[C@H]1CN(C(=O)OCCO[N+](=O)[O-])CCCN1S(=O)(=O)c1cccc2cncc(F)c12` here?
A: Its IC50 is 47.3 nM.

Q: What about the IC50 [18] of the same molecule?
A: The IC50 was 58.4 nM.

Q: And the Activity (HTM [1])?
A: Its Activity is “Active”.

Q: What about the Activity (HTM [2]) of the same molecule?
A: Its Activity is “Active”.

Q: And the Activity (HTM [3])?
A: The Activity was “Active”.

Q: What about the Activity (HTM [4]) of the same molecule?
A: The Activity was “Active”.

Q: What about the Activity (HTM [5]) of the same molecule?
A: The Activity was “Active”.

Q: What about the Activity (HTM [6]) of the same molecule?
A: Its Activity is “Active”.

Q: Which results are given for `C[C@H]1CNCCCN1S(=O)(=O)c1cccc2cncc(F)c12.Cl.O.O` [RIPASUDIL HYDROCHLORIDE DIHYDRATE]?
A: IC50 [18]: 21.4 nM; Activity (HTM [1]): Active; Activity (HTM [2]): Active; Activity (HTM [6]): Active; Activity (HTM [8]): Active; Activity (HTM [9]): Active; Activity (Mus musculus [19]): Active; Activity [20]: Non-Toxic

Q: With `O=[N+]([O-])OCCCCO` as the molecule, how does the Activity (Mus musculus [21]) read?
A: The Activity was “Active”.

Q: What about the Activity [22] of the same molecule?
A: The Activity was “Non-Toxic”.

Q: With `C[C@H]1CN(C(=O)OCCCCO[N+](=O)[O-])CCCN1S(=O)(=O)c1cccc2cncc(F)c12.Cl` as the molecule, how does the IC50 [17] read?
A: Its IC50 is 34.2 nM.

Q: What about the IC50 [18] of the same molecule?
A: Its IC50 is 16.6 nM.

Q: What about the Activity [23] of the same molecule?
A: Its Activity is “Non-Toxic”.

Q: And the Activity [24]?
A: The Activity was “Non-Toxic”.

Q: Which results are given for `C[C@H]1CN(C(=O)OCCCO[N+](=O)[O-])CCCN1S(=O)(=O)c1cccc2cncc(F)c12`?
A: IC50 [17]: 104 nM; IC50 [18]: 25.1 nM; Activity (HTM [1]): Active; Activity (HTM [2]): Active; Activity (HTM [3]): Active; Activity (HTM [4]): Active; Activity (HTM [5]): Active; Activity (HTM [6]): Active

Q: For `CCCCOC(=O)N1CCCN(S(=O)(=O)c2cccc3cncc(F)c23)[C@@H](C)C1`, which Activity (HTM [7]) is on record?
A: The Activity was “Active”.

Q: And the Activity (HTM [8])?
A: The Activity was “Active”.

Q: And the Activity (HTM [9])?
A: Its Activity is “Active”.

Q: And the Activity (HTM [10])?
A: The Activity was “Active”.

Q: What does the source list for `C[C@H]1CN(C(=O)O[C@@H]2CO[C@H]3[C@@H]2OC[C@@H]3O[N+](=O)[O-])CCCN1S(=O)(=O)c1cccc2cncc(F)c12`?
A: IC50 [17]: 53.6 nM; IC50 [18]: 19.5 nM; Activity (HTM [1]): Active; Activity (HTM [2]): Active; Activity (HTM [3]): Active; Activity (HTM [4]): Active; Activity (HTM [5]): Active; Activity (HTM [6]): Active

Q: What does the source list for `C[C@H]1CN(C(=O)OCCCCCO[N+](=O)[O-])CCCN1S(=O)(=O)c1cccc2cncc(F)c12`?
A: IC50 [17]: 44.6 nM; IC50 [18]: 25.2 nM; Activity (HTM [1]): Active; Activity (HTM [2]): Active; Activity (HTM [3]): Active; Activity (HTM [4]): Active; Activity (HTM [5]): Active; Activity (HTM [6]): Active
